Data reported in patent US12655126B2, “Imidazole-pyrazole derivatives as antibacterials” (Hoffmann-La Roche Inc., priority 2020, dated 2026).
Counter-ions that a name gives are not always drawn.

Test system: Acinetobacter baumannii ATCC17961
Experiment: Antimicrobial susceptibility testing: 90% growth inhibitory concentration (IC90) determination
Assay type: cell-based
Details: Acinetobacter baumannii ATCC17961; Iso-Sensitest broth; growth by OD 600 nm over 16 h; 90% growth inhibitory concentration; read-out: ATCC 17961 IC90
Procedure: Antimicrobial Susceptibility Testing:
90% Growth Inhibitory Concentration (IC90) Determination
The in vitro antimicrobial activity of the compounds was determined according to the following procedure:
The assay used a 10-points Iso-Sensitest broth medium to measure quantitatively the in vitro activity of the compounds against Acinetobacter baumannii ATCC17961.
Stock compounds in DMSO were serially twofold diluted (e.g. range from 50 to 0.097 μM final concentration) in 384 wells microtiter plates and inoculated with 49 μl the bacterial suspension in Iso-Sensitest medium to have a final cell concentration of ˜5×10^(5) CFU/ml in a final volume/well of 50 ul/well. Microtiter plates were incubated at 35±2° C.
Bacterial cell growth was determined with the measurement of optical density at λ=600 nm each minutes over a time course of 16 h. Growth inhibition was calculated during the logarithmic growth of the bacterial cells with determination of the concentration inhibiting 50% (IC50) and 90% (IC90) of the growth.
Table 1 provides the 90% growth inhibitory concentrations (IC90) in micromoles per liter of the compounds of present invention obtained against the strain Acinetobacter baumannii ATCC17961.

**Q.** For Cn1c(-c2cn(-c3cc(Cl)c(N)cn3)nc2C(F)(F)F)cnc1C(=O)Nc1ccc(C(=O)N2CCN(C(=O)C3CC[N+](C)(C)CC3)CC2)c(Cl)c1 [Example A12, 5-[1-(5-amino-4-chloro-2-pyridyl)-3-(trifluoromethyl)pyrazol-4-yl]-N-[3-chloro-4-[4-(1,1-dimethylpiperidin-1-ium-4-carbonyl)piperazine-1-carbonyl]phenyl]-1-methyl-imidazole-2-carboxamide], which IC90 is on record?
**A.** Its IC90 is 270 nM.

**Q.** For Cn1c(-c2cn(-c3ncccn3)nc2C(F)(F)F)cnc1C(=O)Nc1ccc(C(=O)N2CCN(C(=O)[C@@H]3C[C@@H](O)C[N+]3(C)C)CC2)c(Cl)c1 [Example B2, N-[3-chloro-4-[4-[(2S,4R)-4-hydroxy-1,1-dimethyl-pyrrolidin-1-ium-2-carbonyl]piperazine-1-carbonyl]phenyl]-1-methyl-5-[1-pyrimidin-2-yl-3-(trifluoromethyl)pyrazol-4-yl]imidazole-2-carboxamide; formate], which IC90 is on record?
**A.** Its IC90 is 1600 nM.

**Q.** Cn1c(-c2cn(-c3ncccn3)nc2C(F)(F)F)cnc1C(=O)Nc1ccc(C(=O)N2CCN(C(=O)[C@@H]3[C@@H](O)CC[N+]3(C)C)CC2)c(Cl)c1 [Example B3, N-[3-chloro-4-[4-[(2S,3S)-3-hydroxy-1,1-dimethyl-pyrrolidin-1-ium-2-carbonyl]piperazine-1-carbonyl]phenyl]-1-methyl-5-[1-pyrimidin-2-yl-3-(trifluoromethyl)pyrazol-4-yl]imidazole-2-carboxamide; formate] was tested. Which IC90 did it give?
**A.** The IC90 was 3800 nM.

**Q.** For Cn1c(-c2cn(-c3ncccn3)nc2C(F)(F)F)cnc1C(=O)Nc1ccc(C(=O)N2CCN(C(=O)C3CC[N+](C)(C)CC3O)CC2)c(Cl)c1 (stereo not shown) [Example B4, N-[3-chloro-4-[4-(3-hydroxy-1,1-dimethyl-piperidin-1-ium-4-carbonyl)piperazine-1-carbonyl]phenyl]-1-methyl-5-[1-pyrimidin-2-yl-3-(trifluoromethyl)pyrazol-4-yl]imidazole-2-carboxamide; formate], which IC90 is on record?
**A.** The IC90 was 1900 nM.

**Q.** Which IC90 does the source give for COc1ccc(-n2cc(-c3cnc(C(=O)Nc4ccc(C(=O)N5CCN(C(=O)[C@@H]6CC[N+](C)(C)C[C@H]6O)CC5)c(Cl)c4)n3C)c(C(F)(F)F)n2)nc1 [Example B5, N-[3-chloro-4-[4-[(3S,4R)-3-hydroxy-1,1-dimethyl-piperidin-1-ium-4-carbonyl]piperazine-1-carbonyl]phenyl]-5-[1-(5-methoxy-2-pyridyl)-3-(trifluoromethyl)pyrazol-4-yl]-1-methyl-imidazole-2-carboxamide] here?
**A.** Its IC90 is 310 nM.

**Q.** COc1ccc(-n2cc(-c3cnc(C(=O)Nc4ccc(C(=O)N5CCN(C(=O)[C@@H]6C[C@@H](O)C[N+]6(C)C)CC5)c(Cl)c4)n3C)c(C(F)(F)F)n2)nc1 [Example B6, N-[3-chloro-4-[4-[(2S,4R)-4-hydroxy-1,1-dimethyl-pyrrolidin-1-ium-2-carbonyl]piperazine-1-carbonyl]phenyl]-5-[1-(5-methoxy-2-pyridyl)-3-(trifluoromethyl)pyrazol-4-yl]-1-methyl-imidazole-2-carboxamide; formate] was tested. Which IC90 did it give?
**A.** Its IC90 is 360 nM.

**Q.** Cn1c(-c2cn(-c3ccc([N+](=O)[O-])cn3)nc2C(F)(F)F)cnc1C(=O)Nc1ccc(C(=O)N2CCN(C(=O)[C@@H]3[C@@H](O)CC[N+]3(C)C)CC2)c(Cl)c1 [Example B7, N-[3-chloro-4-[4-[(2S,3S)-3-hydroxy-1,1-dimethyl-pyrrolidin-1-ium-2-carbonyl]piperazine-1-carbonyl]phenyl]-1-methyl-5-[1-(5-nitro-2-pyridyl)-3-(trifluoromethyl)pyrazol-4-yl]imidazole-2-carboxamide; formate] was tested. Which IC90 did it give?
**A.** Its IC90 is 1600 nM.

**Q.** How did the IC90 turn out when Cn1c(-c2cn(-c3ncccn3)nc2C(F)(F)F)cnc1C(=O)Nc1ccc(C(=O)N2CC[N+](C)(C)CC2)c(Cl)c1 [Example B9, 4-(2-chloro-4-(1-methyl-5-(1-(pyrimidin-2-yl)-3-(trifluoromethyl)-1H-pyrazol-4-yl)-1H-imidazole-2-carboxamido)benzoyl)-1,1-dimethylpiperazin-1-ium] was run?
**A.** Its IC90 is 5200 nM.

**Q.** Cn1c(-c2cn(-c3ncccn3)nc2C(F)(F)F)cnc1C(=O)Nc1ccc(C(=O)N2CCN(C(=O)C3CC[N+](C)(CC(N)=O)CC3)CC2)c(Cl)c1 (stereo not shown) [Example C2, N-[4-[4-[1-(2-amino-2-oxo-ethyl)-1-methyl-piperidin-1-ium-4-carbonyl]piperazine-1-carbonyl]-3-chloro-phenyl]-1-methyl-5-[1-pyrimidin-2-yl-3-(trifluoromethyl)pyrazol-4-yl]imidazole-2-carboxamide; formate] was tested. Which IC90 did it give?
**A.** The IC90 was 1100 nM.

**Q.** For Cn1c(-c2cn(-c3ccc(N)cn3)nc2C(F)(F)F)cnc1C(=O)Nc1ccc(C(=O)N2CCN(C(=O)C3CC[N+](C)(C)CC3)CC2)c(Cl)c1 [Example D3, 5-[1-(5-amino-2-pyridyl)-3-(trifluoromethyl)pyrazol-4-yl]-N-[3-chloro-4-[4-(1,1-dimethylpiperidin-1-ium-4-carbonyl)piperazine-1-carbonyl]phenyl]-1-methyl-imidazole-2-carboxamide; formate], which IC90 is on record?
**A.** Its IC90 is 150 nM.

**Q.** With Cn1c(-c2cn(-c3ccc(N)cn3)nc2C(F)(F)F)cnc1C(=O)Nc1ccc(C(=O)N2CCN(C(=O)C3(O)CC[N+](C)(C)CC3)CC2)c(Cl)c1 [Example D10, 5-[1-(5-amino-2-pyridyl)-3-(trifluoromethyl)pyrazol-4-yl]-N-[3-chloro-4-[4-(4-hydroxy-1,1-dimethyl-piperidin-1-ium-4-carbonyl)piperazine-1-carbonyl]phenyl]-1-methyl-imidazole-2-carboxamide; formate] as the compound, how does the IC90 read?
**A.** Its IC90 is 330 nM.

**Q.** Cn1c(-c2cn(-c3ccc(N)cn3)nc2C(F)(F)F)cnc1C(=O)Nc1ccc(C(=O)N2CCN(C(=O)C[N+]3(C)CCC(O)C3)CC2)c(Cl)c1 (stereo not shown) [Example D11, 5-[1-(5-amino-2-pyridyl)-3-(trifluoromethyl)pyrazol-4-yl]-N-[3-chloro-4-[4-[2-(3-hydroxy-1-methyl-pyrrolidin-1-ium-1-yl)acetyl]piperazine-1-carbonyl]phenyl]-1-methyl-imidazole-2-carboxamide; formate] was tested. Which IC90 did it give?
**A.** The IC90 was 210 nM.

**Q.** How did the IC90 turn out when Cn1c(-c2cn(-c3ccc(N)cn3)nc2C(F)(F)F)cnc1C(=O)Nc1ccc(C(=O)NCC2CCN(C(=O)C3CC[N+](C)(C)CC3)CC2)c(Cl)c1 [Example D12, 5-[1-(5-amino-2-pyridyl)-3-(trifluoromethyl)pyrazol-4-yl]-N-[3-chloro-4-[[1-(1,1-dimethylpiperidin-1-ium-4-carbonyl)-4-piperidyl]methylcarbamoyl]phenyl]-1-methyl-imidazole-2-carboxamide; formate] was run?
**A.** Its IC90 is 1300 nM.

**Q.** For Cn1c(-c2cn(-c3ccc(N)cn3)nc2C(F)(F)F)cnc1C(=O)Nc1ccc(C(=O)N2CCN(C(=O)[C@@H]3COCC[N+]3(C)C)CC2)c(Cl)c1 [Example D13, 5-[1-(5-amino-2-pyridyl)-3-(trifluoromethyl)pyrazol-4-yl]-N-[3-chloro-4-[4-[(3S)-4,4-dimethylmorpholin-4-ium-3-carbonyl]piperazine-1-carbonyl]phenyl]-1-methyl-imidazole-2-carboxamide; formate], which IC90 is on record?
**A.** Its IC90 is 420 nM.

**Q.** With Cn1c(-c2cn(-c3ccc(N)cn3)nc2C(F)(F)F)cnc1C(=O)Nc1ccc(C(=O)N2CCN(C(=O)[C@@H]3[C@@H](Oc4ccc(N)cn4)CC[N+]3(C)C)CC2)c(Cl)c1 [Example D14, N-[4-[4-[(2S,3S)-3-[(5-amino-2-pyridyl)oxy]-1,1-dimethyl-pyrrolidin-1-ium-2-carbonyl]piperazine-1-carbonyl]-3-chloro-phenyl]-5-[1-(5-amino-2-pyridyl)-3-(trifluoromethyl)pyrazol-4-yl]-1-methyl-imidazole-2-carboxamide; formate] as the compound, how does the IC90 read?
**A.** Its IC90 is 550 nM.

**Q.** Cn1c(-c2cn(-c3ccc(N)cn3)nc2C(F)(F)F)cnc1C(=O)Nc1ccc(C(=O)N2CCN(C(=O)[C@@H]3CC(O)CC[N+]3(C)C)CC2)c(Cl)c1 (stereo partly drawn) [Example D15, 5-[1-(5-Amino-2-pyridyl)-3-(trifluoromethyl)pyrazol-4-yl]-N-[3-chloro-4-[4-[(2S)-4-hydroxy-1,1-dimethyl-piperidin-1-ium-2-carbonyl]piperazine-1-carbonyl]phenyl]-1-methyl-imidazole-2-carboxamide;formate] was tested. Which IC90 did it give?
**A.** Its IC90 is 550 nM.

Same assay, conditions: Acinetobacter baumannii, ATCC17961, 16 h, read-out: ATCC 17961 IC90

**Q.** Which IC90 does the source give for Cn1c(-c2cn(-c3ncccn3)nc2C(F)(F)F)cnc1C(=O)Nc1ccc(C(=O)N2CCN(C(=O)C3CC[N+](C)(C)CC3)CC2)c(Cl)c1 [Example B1, N-[3-Chloro-4-[4-(1,1-dimethylpiperidin-1-ium-4-carbonyl)piperazine-1-carbonyl]phenyl]-1-methyl-5-[1-pyrimidin-2-yl-3-(trifluoromethyl)pyrazol-4-yl]imidazole-2-carboxamide; formate] here?
**A.** Its IC90 is 940 nM.

**Q.** Cn1c(-c2cn(-c3ncccn3)nc2C(F)(F)F)cnc1C(=O)Nc1ccc(C(=O)N2CCN(C(=O)C3CC[N+](C)(CC4CNC4)CC3)CC2)c(Cl)c1 (stereo not shown) [Example C1, N-[4-[4-[1-(Azetidin-3-ylmethyl)-1-methyl-piperidin-1-ium-4-carbonyl]piperazine-1-carbonyl]-3-chloro-phenyl]-1-methyl-5-[1-pyrimidin-2-yl-3-(trifluoromethyl)pyrazol-4-yl]imidazole-2-carboxamide; formate] was tested. Which IC90 did it give?
**A.** The IC90 was 410 nM.

**Q.** With Cn1c(-c2cn(-c3ccc(N)cn3)nc2C(F)(F)F)cnc1C(=O)Nc1ccc(C(=O)N2CCN(C(=O)[C@@H]3C[C@@H](O)C[N+]3(C)C)CC2)c(Cl)c1 [Example D1, 5-[1-(5-Amino-2-pyridyl)-3-(trifluoromethyl)pyrazol-4-yl]-N-[3-chloro-4-[4-[(2S,4R)-4-hydroxy-1,1-dimethyl-pyrrolidin-1-ium-2-carbonyl]piperazine-1-carbonyl]phenyl]-1-methyl-imidazole-2-carboxamide; formate] as the compound, how does the IC90 read?
**A.** Its IC90 is 310 nM.
